# Values of other authors, collected in US20110165235A1, “DIRECTLY PRESSED ALISKIREN TABLETS” (ratiopharm GmbH, priority 2008, published 2011).
# Settings: BCS classification
smiles,measurement,value
"COCCCOc1cc(C[C@@H](C[C@H](N)[C@@H](O)C[C@H](C(=O)NCC(C)(C)C(N)=O)C(C)C)C(C)C)ccc1OC [Aliskiren, (2S,4S,5S,7S)-5-amino-N-(2-carbamoyl-2-methyl-propyl)-4-hydroxy-7-{[4-methoxy-3-(3-methoxypropoxy)phenyl]methyl}-8-methyl-2-propan-2-yl-nonanamide]",solubility,high
